We go through two compounds from patent US20190381061A1, “LOCAL ANESTHESIA PAIN-RELIEVING TIME-DELAY AGENT” (priority 2013, published 2019).

The test system of series [1] is peripheral nerve medulla. Conditions: cited from earlier work.
In series [2] the test system is patient. Put plainly: Local anesthesia for clinical surgical operations: composition combined with a local anesthetic and injected locally. Format: in vivo, human. The procedure:
The above components are injected into 4 ml of 0.375% bupivacaine, and a 0.9% saline solution is added so that the total volume became 8 ml, and then, the composition is subcutaneously injected into both eyebrow regions.
The above components were injected into 30 ml of 1% prilocain hydrochloride according to the ratio, and 0.9% […] was added so that the total volume became 60 ml, and then, the composition was subcutaneously, intramuscularly and subperiosteally injected into the operation site of a patient using a 3 cm needle, and as the result, it was concluded that onset time of anesthesia is shortened to 60 seconds from 5 minutes of the existing case wherein only lidocaine was injected, and the duration of anesthetic action is prolonged from the existing 2 hours to 40 days. […].
The above components were injected into 20 ml of 0.5% procaine, and a 0.9% saline solution was added so that the total volume became 40 ml, and then, the composition was sequentially injected subcutaneously, intramusculary and intraperitoneally along the appendectomy scar of the patient using a 3 cm needle, and as the result, it was concluded that onset time of anesthetic is 60 seconds, and the duration of pain relief continues for 40 days. […]. […]

Turning to `CN(C)c1ccc2nc3ccc(=[N+](C)C)cc-3sc2c1` [Methyleneblue], the “concentration at which it may directly injure peripheral nerve medulla to cause irreparable nerve injury” value in series [1] is recorded as more than 0.03%.

Regarding `CCN(CC)CC(=O)Nc1c(C)cccc1C` [lidocaine], the “duration of anesthetic action / pain relief, existing” value in series [2] (existing case, without the composition of the example) turned out to be 2 h. Further, the “onset time of anesthesia, existing case” value in series [2] (only the local anesthetic injected, without the composition) is 5 min.
